Laboratory results published in patent US8178552B2, “7-Azaindole derivatives and their use in the inhibition of c-Jun N-terminal kinase” (Eisai R&D Management Co., Ltd., priority 2008, dated 2012).
pIC50: −log10 of the molar value.

The compounds below were run against JNK3 (Homo sapiens, UniProt P53779) (assay: JNK3 SPA assay). Details: 3.33 μM ATP, GST-c-Jun substrate; read-out: IC50 against JNK3.
Assay type: biochemical
Experimental: JNK1, JNK2, JNK3—SPA Assay
JNK1, JNK2, JNK3—SPA Assay • 1. Compound is dissolved in DMSO to a convenient concentration and this is diluted in 10% DMSO to a five times concentrate of the desired starting concentration (frequently 1:100). • 2. 10 μl of 500 mM EDTA is added to alternative wells of the Opti-plate row, which will receive kinase reaction plus DMSO. This creates the negative control. • 3. For the JNK2 and JNK3 assay, compounds are prepared in six 2-fold dilutions with water and each concentration is tested in duplicate. For the JNK1 assay compounds are prepared in four 5-fold dilutions with water which are tested in triplicate. Controls are treated identically. • 4. 20 μl per well of each compound concentration is transferred to an Opti-plate, in duplicate. • 5. 30 μl (JNK2/3 SPA) or 50 μl (JNK1 SPA) of substrate solution (25 mM HEPES pH 7.5, 10 mM magnesium acetate with 3.33 μM ATP (JNK2/3) or 2 μM ATP (JNK1), approximately 7.5 kBq [γ-^33P] ATP, GST-c-Jun, in water) is added to each well. • 6. 50 μl (JNK2/3 SPA) or 30 μl (JNK1 SPA) of kinase solution (JNK in 25 mM HEPES pH 7.5, 10 mM Mg Acetate) is added to each well.
• 7. The plate is incubated for 30 minutes at room temperature. • 8. 100 μl of bead/stop solution is added to each well (5 mg/ml glutathione-PVT-SPA beads, 40 mM ATP in PBS). • 9. Plates are sealed and incubated for 30 minutes at room temperature, centrifuged for 10 minutes at 2500 g and counted. • 10. The IC50 values are calculated as the concentration of the compound being tested at which the phosphorylation of c-Jun is decreased to 50% of the control value.

JNK3, sequence (P53779 whole entry, species assumed): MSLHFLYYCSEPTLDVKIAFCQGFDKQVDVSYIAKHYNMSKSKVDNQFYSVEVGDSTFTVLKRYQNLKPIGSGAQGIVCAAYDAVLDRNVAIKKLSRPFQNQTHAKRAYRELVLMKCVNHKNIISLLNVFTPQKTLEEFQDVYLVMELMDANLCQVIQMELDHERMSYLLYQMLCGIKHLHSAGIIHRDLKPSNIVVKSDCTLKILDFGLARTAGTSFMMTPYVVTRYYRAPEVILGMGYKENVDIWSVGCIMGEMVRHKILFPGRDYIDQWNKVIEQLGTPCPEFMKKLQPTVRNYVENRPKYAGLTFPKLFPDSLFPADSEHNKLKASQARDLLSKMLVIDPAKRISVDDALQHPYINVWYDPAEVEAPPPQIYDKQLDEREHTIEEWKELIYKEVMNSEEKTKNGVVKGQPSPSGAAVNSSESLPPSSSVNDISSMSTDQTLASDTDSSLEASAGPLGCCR

Row | Compound | pIC50
1 | Cn1cc(-c2c[nH]c3ncc([C@H]4CC[C@H](NC5CCOCC5)CC4)cc23)cn1 [Compound I-127, N-((1 r,4r)-4-(3-(1-methyl-1H-pyrazol-4-yl)-1H-pyrrolo[2,3-b]pyridin-5-yl)cyclohexyl)tetrahydro-2H-pyran-4-amine] | 6.40
2 | CN[C@@H]1C[C@H]2C=C(c3cnc4[nH]cc(-c5cnn(C)c5)c4c3)C[C@H](C2)C1 (relative stereo) [Compound I-151, trans N-methyl-7-(3-(1-methyl-1H-pyrazol-4-yl)-1H-pyrrolo[2,3-b]pyridin-5-yl)bicyclo[3.3.1]non-6-en-3-amine] | 6.46
3 | Cn1cc(-c2c[nH]c3ncc([C@H]4CC[C@@H](N5CCCCC5)CC4)cc23)cn1 [Compound I-46, 3-(1-methyl-1H-pyrazol-4-yl)-5-((1s,4s)-4-(piperidin-1-yl)cyclohexyl)-1H-pyrrolo[2,3-b]pyridine] | 6.82
4 | CCCN(CC)[C@H]1CC[C@@H](c2cnc3[nH]cc(-c4cnn(C)c4)c3c2)CC1 [Compound I-114, (1s,4s)-N-ethyl-4-(3-(1-methyl-1H-pyrazol-4-yl)-1H-pyrrolo[2,3-b]pyridin-5-yl)-N-propylcyclohexanamine] | 6.65
5 | CN(C)[C@H]1CC[C@@H](c2cnc3[nH]cc(-c4cnn(CCN5CCOCC5)c4)c3c2)CC1 [Compound I-59, (1s,4s)-N,N-dimethyl-4-(3-(1-(2-morpholinoethyl)-1H-pyrazol-4-yl)-1H-pyrrolo[2,3-b]pyridin-5-yl)cyclohexanamine] | < 6.30
6 | Cn1cc(-c2c[nH]c3ncc(C4=CCC(C)(C)C=C4)cc23)cn1 [Compound I-21, 5-(4,4-dimethylcyclohexa-1,5-dienyl)-3-(1-methyl-1H-pyrazol-4-yl)-1H-pyrrolo[2,3-b]pyridine] | 7.31
7 | Cn1cc(-c2c[nH]c3ncc([C@@H]4C[C@H]5O[C@@H]4CC5C#N)cc23)cn1 (stereo partly drawn) [Compound I-157, (1R,4R,5S)-5-(3-(1-methyl-1H-pyrazol-4-yl)-1H-pyrrolo[2,3-b]pyridin-5-yl)-7-oxabicyclo[2.2.1]heptane-2-carbonitrile] | 6.53
8 | c1nn(CCN2CCOCC2)cc1-c1c[nH]c2ncc(C3CCCC3)cc12 [Compound I-64, 5-Cyclopentyl-3-[1-(2-morpholin-4-yl-ethyl)-1H-pyrazol-4-yl]-1H-pyrrolo[2,3-b]pyridine] | 6.80
9 | Cn1cc(-c2c[nH]c3ncc(C4CCC(CN5CCOCC5)CC4)cc23)cn1 (mixture of isomers) [Compound I-73, 3-(1-Methyl-1H-pyrazol-4-yl)-5-(4-morpholin-4-ylmethyl-cyclohexyl)-1H-pyrrolo[2,3-b]pyridine] | 7.13
10 | CN1C2CC3CC(C2)C(O)C1(c1cnc2[nH]cc(-c4cnn(C)c4)c2c1)C3 (centres unmarked) [Compound I-153] | 6.54
11 | Cn1cc(-c2c[nH]c3ncc([C@H]4CC[C@H](N5CCCCC5)CC4)cc23)cn1 [Compound I-45, 3-(1-methyl-1H-pyrazol-4-yl)-5-((1r,4r)-4-(piperidin-1-yl)cyclohexyl)-1H-pyrrolo[2,3-b]pyridine] | 6.78
12 | CCN(CCO)C1CCC(c2cnc3[nH]cc(-c4cnn(C)c4)c3c2)CC1 (mixture of isomers) [Compound I-131, 2-(ethyl(4-(3-(1-methyl-1H-pyrazol-4-yl)-1H-pyrrolo[2,3-b]pyridin-5-yl)cyclohexyl)amino)ethanol] | 6.60
13 | CCCN(C)[C@H]1CC[C@H](c2cnc3[nH]cc(-c4cnn(C)c4)c3c2)CC1 [Compound I-115, (1r,4r)-N-methyl-4-(3-(1-methyl-1H-pyrazol-4-yl)-1H-pyrrolo[2,3-b]pyridin-5-yl)-N-propylcyclohexanamine] | 6.46
14 | Cn1cc(-c2c[nH]c3ncc(C4CCC(=O)CC4)cc23)cn1 [Compound I-20, 4-[3-(1-Methyl-1H-pyrazol-4-yl)-1H-pyrrolo[2,3-b]pyridin-5-yl]-cyclohexanone] | 6.64
15 | Cn1cc(-c2c[nH]c3ncc([C@H]4CC[C@H](N5CC[C@@H](F)C5)CC4)cc23)cn1 [Compound I-54, 5-((1R,4r)-4-((R)-3-fluoropyrrolidin-1-yl)cyclohexyl)-3-(1-methyl-1H-pyrazol-4-yl)-1H-pyrrolo[2,3-b]pyridine] | 6.76
16 | Cn1cc(-c2c[nH]c3ncc(C4=CCCCC4)cc23)cn1 [Compound I-12, 5-cyclohexenyl-3-(1-methyl-1H-pyrazol-4-yl)-1H-pyrrolo[2,3-b]pyridine] | 6.96
17 | CCCN(CCOC)[C@H]1CC[C@@H](c2cnc3[nH]cc(-c4cnn(C)c4)c3c2)CC1 [Compound I-122, (1s,4s)-N-(2-methoxyethyl)-4-(3-(1-methyl-1H-pyrazol-4-yl)-1H-pyrrolo[2,3-b]pyridin-5-yl)-N-propylcyclohexanamine] | 6.53
18 | Cn1cc(-c2c[nH]c3ncc(C4=CCC(c5ccccc5)CC4)cc23)cn1 (centres unmarked) [Compound I-27, 3-(1-methyl-1H-pyrazol-4-yl)-5-(4-phenylcyclohex-1-enyl)-1H-pyrrolo[2,3-b]pyridine] | 6.81
19 | CCN(CCOC)[C@H]1CC[C@H](c2cnc3[nH]cc(-c4cnn(C)c4)c3c2)CC1 [Compound I-123, (1r,4r)-N-ethyl-N-(2-methoxyethyl)-4-(3-(1-methyl-1H-pyrazol-4-yl)-1H-pyrrolo[2,3-b]pyridin-5-yl)cyclohexanamine] | 6.49
20 | Cn1cc(-c2c[nH]c3ncc(C4=CC5CC(=O)CC(C4)C5)cc23)cn1 (centres unmarked) [Compound I-145, 7-(3-(1-methyl-1H-pyrazol-4-yl)-1H-pyrrolo[2,3-b]pyridin-5-yl)bicyclo[3.3.1]non-6-en-3-one] | 6.78
21 | COCCN(C)[C@H]1CC[C@H](c2cnc3[nH]cc(-c4cnn(C)c4)c3c2)CC1 [Compound I-117, (1r,4r)-N-(2-methoxyethyl)-N-methyl-4-(3-(1-methyl-1H-pyrazol-4-yl)-1H-pyrrolo[2,3-b]pyridin-5-yl)cyclohexanamine] | 6.54
22 | CCCN(CCOC)[C@H]1CC[C@H](c2cnc3[nH]cc(-c4cnn(C)c4)c3c2)CC1 [Compound I-121, (1r,4r)-N-(2-methoxyethyl)-4-(3-(1-methyl-1H-pyrazol-4-yl)-1H-pyrrolo[2,3-b]pyridin-5-yl)-N-propylcyclohexanamine] | 6.44
23 | CC1CC=C(c2cnc3[nH]cc(-c4cnn(C)c4)c3c2)CC1 (centres unmarked) [Compound I-1, 3-(1-methyl-1H-pyrazol-4-yl)-5-(4-methylcyclohex-1-enyl)-1H-pyrrolo[2,3-b]pyridine] | 7.74
24 | CCCN(CCO)[C@H]1CC[C@@H](c2cnc3[nH]cc(-c4cnn(C)c4)c3c2)CC1 [Compound I-126, 2-(((1s,4s)-4-(3-(1-methyl-1H-pyrazol-4-yl)-1H-pyrrolo[2,3-b]pyridin-5-yl)cyclohexyl)(propyl)amino)ethanol] | 6.55
25 | CCOCCN(CC)[C@H]1CC[C@H](c2cnc3[nH]cc(-c4cnn(C)c4)c3c2)CC1 [Compound I-107, (1r,4r)-N-(2-ethoxyethyl)-N-ethyl-4-(3-(1-methyl-1H-pyrazol-4-yl)-1H-pyrrolo[2,3-b]pyridin-5-yl)cyclohexanamine] | 6.54
26 | CCN(CCOC)[C@H]1CC[C@@H](c2cnc3[nH]cc(-c4cnn(C)c4)c3c2)CC1 [Compound I-124, (1s,4s)-N-ethyl-N-(2-methoxyethyl)-4-(3-(1-methyl-1H-pyrazol-4-yl)-1H-pyrrolo[2,3-b]pyridin-5-yl)cyclohexanamine] | 6.59
